Assay results: publication PMC13130965, “An Integrated Approach Combining Regulatory Tests in tg(cyp19a1b:GFP) Zebrafish Embryos to Assess Toxicity, Developmental Effects, and Estrogenic Activity of Chemicals: A Case Study with Bisphenol A Substitutes” (Environmental Science & Technology, 2026)
Converted amounts (≈) assume the structure as drawn. Read-outs that look alike come from different tables or passages of the source.

Key:
[1] = Refined Fish Embryo Acute Toxicity test (FET, OECD TG 236): mortality; type: in vivo, zebrafish (Danio rerio); conditions: tg(cyp19a1b:GFP), zebrafish, in vivo, other: waterborne exposure of embryos in test solution, LC50 (96h) experimental (FET test), nominal, brackets 95% CI
Experimental: (§1) Exposures were carried out in presaturated 24-well plates containing one embryo per well in 2 mL of test solution. The exposure was performed under semistatic conditions, with daily renewal of the test solution. The concentration ranges tested, along with a control with the same percentage of solvent alone, are recapitulated in Table S1. All exposure concentrations are reported as nominal. During the time course of the refined FET tests, embryos were observed after 8 h (coagulation), 24 h (lack of somite formation and nondetachment of the tail), and 48, 72, and 96 h of exposure (nondetection of the heartbeat). […] Moreover, hatching rate and nonlethal developmental effects (i.e., yolk deformity, growth retardation, spontaneous movement, edema, blood tail circulation, heart rate, pigmentation, head and tail/spinal malformations, and hemorrhage) were monitored daily. Tail/spinal malformations included lordosis, kyphosis, scoliosis, and reduced tail length.
(§2) This analysis considered all nonlethal developmental end points monitored in the refined FET assay (see above), except effects on hatching, pigmentation, spontaneous movement, and blood circulation. A teratogenic index (TI) was then calculated as the ratio LC50/EC50.
(§3) Baseline toxicity and experimental FET LC50 values were used to calculate toxic ratios (TR = predicted baseline toxicity LC50/experimental FET LC50). Compounds with TR < 10 were considered as baseline toxicants.

[2] = system: tg(cyp19a1b:GFP) zebrafish embryos; test: Refined FET: developmental effects / malformations; type: in vivo, zebrafish (Danio rerio); conditions: nominal; for LOEC deformity of yolk: at least 10% of embryos affected
Experimental: as §1, §2

[3] = system: cyp19a1b:GFP (brain aromatase) in tg(cyp19a1b:GFP) zebrafish embryos; test: EASZY assay (OECD TG 250): GFP induction; type: in vivo, zebrafish (Danio rerio); conditions: Danio rerio, 96 h
Experimental: The tests were conducted according to OECD TG 250. Newly fertilized cyp19a1b-GFP eggs were transferred to glass crystallizing dishes and exposed for 96 h in a humidified climate chamber (27 ± 2 °C) under semistatic conditions with a total renewal of the test solutions each day. Each condition consisted of three crystallizing dishes, each containing 7 embryos and 15 mL of test medium. Embryos were exposed to a range of nonlethal concentrations of chemicals as determined previously based on the refined FET assays. The tested concentration ranges of bisphenols, along with a control with the same percentage of solvent alone, are summarized in Table S2. All exposure concentrations are reported as nominal. At the end of exposure, transgenic zebrafish embryos were collected for fluorescence imaging to quantify GFP intensity. At the end of the experiments, all living zebrafish embryos were euthanized as described above. […] ICI was added together with bisphenols from 0 to 4 dpf (days post fertilization). […] In all coexposure experiments, the final DMSO concentration was 0.02% (v/v).
For fluorescence imaging, GFP fold induction was expressed as mean ± SEM, and values were compared to the DMSO control using one-way ANOVA followed by Dunnett’s posthoc test. […]

zebrafish ERβ2 (zfERβ2) = zebrafish ERβ2 (zfERβ2) (Danio rerio, UniProt Q7ZU32); test: ZELH-zfERβ2 luciferase reporter gene assay; type: cell-based; conditions: read-out: maximal efficacy
Chain of zebrafish ERβ2 (zfERβ2) (Q7ZU32 1-553): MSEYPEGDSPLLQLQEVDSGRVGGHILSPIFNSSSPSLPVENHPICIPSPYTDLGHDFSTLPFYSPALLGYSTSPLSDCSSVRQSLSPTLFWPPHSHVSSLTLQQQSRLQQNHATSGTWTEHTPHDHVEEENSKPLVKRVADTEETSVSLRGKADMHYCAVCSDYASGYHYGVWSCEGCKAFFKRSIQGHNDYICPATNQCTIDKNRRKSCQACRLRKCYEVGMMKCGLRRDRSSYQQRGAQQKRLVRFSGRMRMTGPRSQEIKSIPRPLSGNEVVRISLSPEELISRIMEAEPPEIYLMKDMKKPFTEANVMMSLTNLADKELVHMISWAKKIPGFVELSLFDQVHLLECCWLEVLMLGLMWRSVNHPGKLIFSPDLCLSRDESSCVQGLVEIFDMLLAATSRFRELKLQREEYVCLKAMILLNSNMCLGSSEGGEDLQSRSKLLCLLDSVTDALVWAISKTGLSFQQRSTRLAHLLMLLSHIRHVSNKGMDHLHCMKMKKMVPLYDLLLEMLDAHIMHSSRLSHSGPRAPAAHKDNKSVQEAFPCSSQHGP
Experimental: The ZELH-zfERs reporter cell line was previously established after a two-step stable transfection of the zebrafish hepatic cell line ZFL with the luciferase gene under the control of ERE (yielding the ZELH cell line that expresses no functional ER) and the zebrafish ER subtype β2 (yielding the ZELH-zfERβ2 cell line). Cells were cultured, exposed to chemicals for 72 h, and measured for luciferase activity exactly as previously described. , For each chemical, serial dilutions were prepared in DMSO and tested in three independent experiments. The final DMSO concentration in the culture medium was always 0.1% v/v. All tested concentrations refer to nominal concentrations.

[4] = ref Adamovsky et al.; cited from earlier work
hERβ [5] = system: hERβ; set-up: method as in Grimaldi et al.; conditions: HELN-hERβ; ref Grimaldi et al.; cited from earlier work
hERβ [6] = system: hERβ; set-up: method as in Pelch et al.; conditions: HepG2-hERβ, ref Pelch et al., cited from earlier work
Zebrafish embryos = conditions: cited from earlier work; for LOEC (body length, GnRH3 neurons, reproductive neuroendocrine-related genes and hormones) / NOEC (body length, GnRH3 neurons, reproductive neuroendocrine-related genes and hormones): 120h-exposure, ref Qiu et al. (2021); for LC10(96h): ref Blanc et al. (2019)
Adult Zebrafish = conditions: ref Ren et al. (2017); cited from earlier work
[7] = system: cyp19a1b:GFP (brain aromatase) in tg(cyp19a1b:GFP) zebrafish embryos; test: Refined FET: GFP fluorescence imaging at 96 h; type: in vivo, zebrafish (Danio rerio); conditions: nominal
Experimental: as §1, with “All the tests were conducted according to OECD TG 236, except for the temperature (27 ± 2 °C), which was aligned with the OECD TG 250 (see below). Exposures” for “Exposures”, “length. […] To do so, each embryo was photographed and analyzed as described by Brion et al. At the end of the refined FET assay, all living zebrafish embryos were euthanized using a protocol combining anesthesia induced by 168 mg/L tricaine (Pharmaq, delivered from Vetofish, Chateauneuf-les-Martigues, France) and the addition of bleach solution (sodium hypochlorite 6.15%; 1 volume of bleach to 5 volumes of water) to induce death.” for “length.”
For fluorescence imaging, GFP fold induction was expressed as mean ± SEM, and values were compared to the DMSO control using one-way ANOVA followed by Dunnett’s posthoc test.

[8] = system: tg(cyp19a1b:GFP) zebrafish embryos; test: Refined Fish Embryo Acute Toxicity test (FET, OECD TG 236): mortality; type: in vivo, zebrafish (Danio rerio); conditions: nominal, brackets 95% CI
Experimental: as §1, §2, §3

[9] = zebrafish embryos, ref Ren et al. (2017)

Structure (SMILES): CCC(C)(c1ccc(O)cc1)c1ccc(O)cc1 [BPB, 4-[2-(4-hydroxyphenyl)butan-2-yl] phenol]
- LC50 at 96 h [1]: 6.85 µg/mL (≈ 28.3 µM)
- EC50 ([2]; Danio rerio, end of 96 h exposure, read-out: EC50 malformations (cumulative sublethal end points)): 5.4 µg/mL (≈ 22.3 µM)
- LOEC edema [2]: 5 mg/L
- LOEC head malformations [2]: 10 mg/L
- LOEC heart rate disruption [2]: 10 mg/L
- LOEC hemorrhage [2]: 10 mg/L
- LOEC no spontaneous movement [2]: 10 mg/L
- LOEC deformity of yolk [2]: 10 mg/L
- minimal effective concentration ([3]; read-out: EASZY LOEC (GFP induction), nominal): 0.312 µg/mL
- Emax (zebrafish ERβ2 (zfERβ2)): 66%
- Log Kow [4]: 3.95
- EC50 (hERβ [5]): 128 nM
- maximal efficacy (hERβ [5]): 60%
- maximal efficacy (hERβ [6]): 56%
- LOEC (body length, GnRH3 neurons, reproductive neuroendocrine-related genes and hormones) (Zebrafish embryos): 100 µg/L
- NOEC (body length, GnRH3 neurons, reproductive neuroendocrine-related genes and hormones) (Zebrafish embryos): 1 µg/L
- NOEC (developmental toxicity) (Zebrafish embryos; Wildtype (AB/TL), 1-6 dpf static + 6-9 dpf semistatic, ref Catron et al. (2018; 2019)): 5.1 µM
- LC50 (Zebrafish embryos; read-out: LC50(96h), Wildtype AB, 96h-exposure, ref Arrokhman et al. (2023)): 28000 nM
- LC50 (96h) literature (Zebrafish embryos; zebrafish embryos, ref Arrokhman et al.): 6.79 µg/mL (≈ 28 µM)
- LC50 (96h) literature (Zebrafish embryos; zebrafish embryos, ref Gao et al.): 3.52 µg/mL (≈ 14.5 µM)
- Body length LOEC (Zebrafish embryos; [9]): 2 mg/L
- Body length NOEC (Zebrafish embryos; [9]): 1 mg/L
- LC50(24h) (Zebrafish embryos; [9]): 7.18 µg/mL (≈ 29.6 µM)
- LC50(48h) (Zebrafish embryos; [9]): 6.54 µg/mL (≈ 27 µM)
- LC50(72h) (Zebrafish embryos; [9]): 4.53 µg/mL (≈ 18.7 µM)
- LC50 (96h) literature (Zebrafish embryos; zebrafish embryos, ref Ren et al.): 3.88 µg/mL (≈ 16 µM)
- LC50(24h) (Adult Zebrafish): 5.07 µg/mL (≈ 20.9 µM)
- LC50(48h) (Adult Zebrafish): 4.64 µg/mL (≈ 19.1 µM)
- LC50(72h) (Adult Zebrafish): 4.15 µg/mL (≈ 17.1 µM)
- LC50(96h) (Adult Zebrafish): 4.15 µg/mL (≈ 17.1 µM)

Structure (SMILES): O=S(=O)(c1ccc(O)cc1)c1ccc(O)cc1 [BPS, 4-(4-hydroxyphenyl)sulfonylphenol]
- LOEC deformity of yolk [2]: 400 mg/L
- EC50 ([7]; Danio rerio, Hill model, read-out: EC50 GFP induction in refined FET): 35.7 µg/mL (≈ 143 µM)
- EC10 GFP induction in refined FET [7]: 16.6 µg/mL (≈ 66.3 µM)
- EC20 GFP induction in refined FET [7]: 22.0 µg/mL (≈ 87.9 µM)
- EC50 ([3]; read-out: EASZY relative EC50, nominal): 62.7 µg/mL (≈ 251 µM)
- Emax (zebrafish ERβ2 (zfERβ2)): 85%
- EC50 (hERβ [5]): 1720 nM
- maximal efficacy (hERβ [5]): 100%
- EC50 (hERβ [6]; NA = not active): 2100 nM
- maximal efficacy (hERβ [6]): 77%
- LC10(96h) (Zebrafish embryos; 4-days exposure): > 100 µg/mL
- Hatching success EC50(72h) (Zebrafish embryos; 4-days exposure, ref Moreman et al. (2017)): 155 (15) mg/L
- LOEC (body length, GnRH3 neurons, reproductive neuroendocrine-related genes and hormones) (Zebrafish embryos): 100 µg/L
- NOEC (body length, GnRH3 neurons, reproductive neuroendocrine-related genes and hormones) (Zebrafish embryos): 1 µg/L
- LC10(96h) (Zebrafish embryos): > 400000 nM
- Body length LOEC (Zebrafish embryos; [9]): 350 mg/L
- Body length NOEC (Zebrafish embryos; [9]): 300 mg/L
- Hatching rate EC50(120h) (Zebrafish embryos; [9]): 200 µg/mL
- Heart rate EC50(78h) (Zebrafish embryos; [9]): 318 µg/mL

Structure (SMILES): Nc1ccc(Cl)c(Cl)c1 [3,4-DCA, reference compound]
- LC50 (96h) experimental (FET test) [8]: 2.46 µg/mL (≈ 15.2 µM)
- mean LC50 of FET positive control (Zebrafish embryos; ref OECD TG 236 validation report): 2.7 µg/mL
